Here are results for six molecules from patent publication EP4715056A1, “BIO-BASED TRANS-ACONITATE, PREPARATION METHOD THEREFOR AND USE THEREOF” (Qingdao Institute of Bioenergy and Bioprocess Technology, …, priority 2023, dated 2024).

Data set [1] is described as follows: Hardness (Shore hardness tester, GB/T 531-2008). The following applies: composite: 100 parts PVC resin (K value 60, polydispersity index 4), 30 parts plasticizer, 2 parts oxidized polyethylene wax, 5 parts octyltin maleate. It is filed as physicochemical.
Data set [2] is described as follows: Compatibility (water value method). Format: physicochemical. The following applies: water value of the plasticizer, Table 9.
The nature of data set [3]: Volatility loss rate (activated carbon method, HG/T 4458-2012). The following applies: PVC composite with 30 parts plasticizer; 70°C for 24 h. Format: physicochemical. As to the method:
(§1) The above plasticizer is the mixed aconitates prepared in Example 37, and composite materials are prepared according to the above weight ratio and preparation method respectively. At the same time, dioctyl phthalate, tributyl citrate, tributyl aconitate and triisooctyl aconitate are respectively selected as plasticizers to prepare composite materials according to the above weight ratio and preparation method. The test method is the same as that in Test 2 except for the following: • 1. Volatility loss rate: tests were performed in accordance with HG/T 4458-2012 Plastics - Determination of Plasticizer Loss by Activated Carbon Method at a test temperature of 70°C for 24 h. • 2. Water extraction rate: tests were performed in accordance with the standard ISO 175-2011 Test Method for Determination of Immersion Effects of Plastics in Liquid Chemicals at room temperature for 72 h, with deionized water as the extraction solvent. • 3. Ethanol extraction rate: tests were performed in accordance with the standard ISO 175-2011 Test Method for Determination of Immersion Effects of Plastics in Liquid Chemicals at room temperature for 72 h, with ethanol as the extraction solvent. • 4. Petroleum ether extraction rate: tests were performed in accordance with the standard ISO 175-2011 Test Method for Determination of Immersion Effects of Plastics in Liquid Chemicals at room temperature for 72 h, with petroleum ether as the extraction solvent. • 5. Migration rate: tests were performed in accordance with HG/T 4458-2012 Determination of Plasticizer Migration in Plastics at a test temperature of 50°C for 48 h. The materials of absorbent sheets are polyethylene (PE) without additives and standard natural rubber (NR).

The nature of data set [4]: Water extraction rate (ISO 175-2011). It is filed as physicochemical. The following applies: PVC composite with 30 parts plasticizer; room temperature, 72 h, deionized water. As to the method: as §1
Data set [5] is described as follows: Ethanol extraction rate (ISO 175-2011). Format: physicochemical. The following applies: PVC composite with 30 parts plasticizer, room temperature, 72 h. As to the method: as §1
A short description of data set [6]: Petroleum ether extraction rate (ISO 175-2011). It is filed as physicochemical. The following applies: PVC composite with 30 parts plasticizer, room temperature, 72 h. On the procedure: as §1
A short description of data set [7]: Plasticizer migration rate to PE (HG/T 4458-2012). Format: physicochemical. The following applies: PVC composite with 30 parts plasticizer; 50°C for 48 h. As to the method: as §1
The nature of data set [8]: Plasticizer migration rate to NR (HG/T 4458-2012). It is filed as physicochemical. The following applies: PVC composite with 30 parts plasticizer; 50°C for 48 h. As to the method:
as §1

Data set [9] in a line: Tensile properties (GB/T 1040-2006): tensile modulus at 100%, elongation at break, elastic modulus. It is filed as physicochemical. The conditions noted are these: PVC composite with 30 parts plasticizer, Table 9.
Data set [10] is described as follows: Glass transition temperature (dynamic mechanical analyzer). Format: physicochemical. The conditions noted are these: PVC composite with 30 parts plasticizer, Table 10.
Data set [11] relates to Aspergillus terreus engineered strains. Format: cell-based. The conditions noted are these: 96 hours of shake flask fermentation. As to the method: Additional supplementation experiments were performed on differential amino acids and vitamins between high-yield and low-yield corn steep liquor powders. Based on the high-yield corn steep liquor powder medium, fermentation verification was performed by adding differential amino acid components and vitamin components separately. Each group was set up with three parallel replicates. After 96 hours of shake flask fermentation, the supernatant of the fermentation broth was collected for quantitative analysis using HPLC detection.

Data set [12] has the same test system. It is filed as cell-based. The conditions noted are these: 30 L fermenter. On the procedure:
Meanwhile, the medium without added amino acids was used as a control to compare the fermentation yields. […] The primary and secondary seed media were: 150 g/L glucose monohydrate, 4 g/L ammonium sulfate, 2 g/L corn steep liquor powder, 0.4 g/L magnesium sulfate heptahydrate, 0.06 g/L ferrous sulfate heptahydrate, 0.01 g/L diammonium hydrogen phosphate, 40 mg/L zinc sulfate, 40 mg/L copper sulfate, and 0.5 g/L sodium chloride; no L-Trp or L-Met was added to the primary and secondary media. The tertiary fermentation medium was the same as the secondary seed medium, but L-Trp or L-Met was added. The control parameters of the 30 L fermenter were as follows: 300 to 480 rpm, dissolved oxygen (DO) level maintained at 25% to 29%, aeration rate at 20 L/min; DO control was linked during agitation. The control parameters of the 100 L fermenter were as follows: 250 to 280 rpm, DO controlled from 25 to 30% during agitation linkage, and aeration rate controlled f […].

Data set [13] deals with Aspergillus niger engineered strains. The following applies: shake flask, addition amount 0.12 g/L. On the procedure: Nutritional factor optimization experiments were performed on the trans-Aconitic acid-producing Aspergillus niger engineered strains constructed in Example 1. Amino acid components were added for fermentation verification using the high-yield corn steep liquor powder medium as the basis.

The test system is the same in data set [14]. The conditions noted are these: 30 L fermenter, after 132 h of fermentation. As to the method:
Fermentation was performed in a 30 L fermenter using the medium added with L-methionine. The control parameters were as follows: 300 to 480 rpm, DO level maintained at 25 to 29%, and aeration rate controlled at 20 L/min.

Counter-ions that a name gives are not always drawn. Like-named read-outs stand apart in the source and are kept apart here.

As for `CCCCCCCCOC(=O)c1ccccc1C(=O)OCCCCCCCC` [Dioctyl Phthalate, dioctyl phthalate], in data set [1], the “Hardness/Shore D” value is given as 78 Shore D. Besides, in data set [2], the Compatibility was 7.1 mL. The Volatility loss rate in data set [3] stood at 0.96%. The molecule further yielded a Water extraction rate in data set [4] of 0.32%. The same molecule showed an Ethanol extraction rate in data set [5] of 5.13%. In addition, in data set [6], the “Petroleum ether extraction rate” value was determined as 6.12%. Moreover, the “Migration rate to PE” value in [7] is 0.83%. Also, the “Migration rate to NR” value in data set [8] came to 0.81%. In addition, in [9], the Elastic modulus was 487.3 MPa, the Elongation at break is 134.9% and the “Tensile modulus at 100%” value came to 15.1 MPa. In data set [10], this molecule had a Tg of 48.5 °C.
Take `CSCC[C@H](N)C(=O)O` [L-methionine]: in [11] (addition of 0.115 g/L), the “increase of the yield of trans-Aconitic acid” value came to 86.5%. Further, the “final fermentation yield of trans-Aconitic acid” value in data set [12] (0.115 g/L added (26 g/L without adding amino acid)) is 65 g/L. Moreover, the “yield of the recombinant engineered strains” value in data set [13] is on record as 31.76 g/L. This molecule registered a TAA yield in data set [14] of 60 g/L.
Take `N[C@@H](Cc1c[nH]c2ccccc12)C(=O)O` [L-tryptophan]: the “increase of the yield of trans-Aconitic acid” value is on record as 46.2% in [11] (addition of 0.099 g/L) and 20.7% in data set [11] (addition of 0.2 g/L). Besides, the “yield of trans-Aconitic acid” value in data set [12] (0.099 g/L added, at 60 h (26 g/L without adding amino acid)) stood at 41.95 g/L.
For the molecule `CCCCOC(=O)C=C(CC(=O)OCCCC)C(=O)OCCCC` [Tributyl aconitate, tributyl aconitate], the “Hardness/Shore D” value in data set [1] is on record as 45 Shore D. Moreover, the Compatibility in data set [2] turned out to be 16.7 mL. Also, the Volatility loss rate in data set [3] is reported as 1.08%. Further, the Water extraction rate in [4] is 0.36%. The Ethanol extraction rate in [5] stood at 3.71%. Moreover, the “Petroleum ether extraction rate” value in [6] was determined as 6.03%. For the same molecule, the “Migration rate to PE” value in data set [7] amounted to 1.26%. Besides, the “Migration rate to NR” value in data set [8] was 1.31%. In data set [9], the Elastic modulus stood at 130.5 MPa, the Elongation at break is 257.4% and the “Tensile modulus at 100%” value is given as 8.2 MPa. Besides, the Tg in data set [10] amounted to 28.1 °C.
As for `CCCCOC(=O)CC(O)(CC(=O)OCCCC)C(=O)OCCCC` [Tributyl citrate, tributyl citrate], the “Hardness/Shore D” value in [1] worked out at 77 Shore D. In addition, the Compatibility in [2] is recorded as 14.3 mL. The Volatility loss rate in data set [3] is given as 3.87%. The same molecule yielded a Water extraction rate in data set [4] of 1.16%. Further, the Ethanol extraction rate in [5] was determined as 4.96%. Also, in [6], the “Petroleum ether extraction rate” value is reported as 8.91%. Moreover, in data set [7], the “Migration rate to PE” value was found to be 2.12%. The “Migration rate to NR” value in data set [8] is recorded as 2.71%. In data set [9], the Elastic modulus is listed as 426.5 MPa, the Elongation at break was 146.3% and the “Tensile modulus at 100%” value turned out to be 13.6 MPa. The Tg in data set [10] worked out at 38.3 °C.
Consider `CC(C)CCCCCOC(=O)C=C(CC(=O)OCCCCCC(C)C)C(=O)OCCCCCC(C)C` [Triisooctyl aconitate, triisooctyl aconitate], for which, in [1], the “Hardness/Shore D” value amounted to 71 Shore D. This molecule also gave a Compatibility in data set [2] of 10.9 mL. Moreover, in data set [3], the Volatility loss rate was found to be 0.38%. The Water extraction rate in data set [4] is reported as 0.14%. Moreover, the Ethanol extraction rate in [5] is on record as 14.52%. Besides, in data set [6], the “Petroleum ether extraction rate” value is 16.44%. Besides, the “Migration rate to PE” value in data set [7] is recorded as 0.13%. Further, in data set [8], the “Migration rate to NR” value came out at 0.18%. Moreover, in data set [9], the Elastic modulus came out at 397.1 MPa, the Elongation at break is recorded as 156.3% and the “Tensile modulus at 100%” value was 16.1 MPa. Moreover, the Tg in data set [10] amounted to 43.5 °C.
